Data reported in BindingDB's records for doi:10.3109/14756366.2013.793184 (Nycomed, 2014).
Where “and” joins values, the source holds several entries; their conditions need not be identical. Equal values may be shown once. One block for each compound: values may come before it.

Biological target: Inosine-5'-monophosphate dehydrogenase 2 (Homo sapiens, UniProt P12268)
Assay: Enzyme Assay
Settings: pH 8; 37 °C
Protocol: The reaction was initiated by the addition of 300 μM of IMP and 500 μM of NAD+ and the assay was allowed to proceed at 37 °C for 50 min before stopping by the addition of 15 mM GMP. The NADH generated was measured by reading the absorbance at 340 nm.

SMILES: CCC(CC#N)OC(=O)N[C@@H](C)c1cccc(NC(=O)Nc2ccc3c(c2)OCO3)c1 (some centres not stated) [IMPDH II inhibitor, 20]
IC50: > 30 µM

SMILES: CCC(CC#N)OC(=O)N[C@@H](C)c1cccc(NC(=O)N2CCN(c3ccc(C#N)c(OC)c3)CC2)c1 (some centres not stated) [IMPDH II inhibitor, 41]
IC50: < 30 µM

SMILES: CCC(CC#N)OC(=O)N[C@@H](C)c1cccc(N/C(=C/[N+](=O)[O-])Nc2ccc(C#N)c(OC)c2)c1 (some centres not stated) [IMPDH II inhibitor, 34]
IC50: < 30 µM

SMILES: CCC(CC#N)OC(=O)N[C@@H](C)c1cccc(NC(=O)Nc2ccc3c(c2)ncn3C)c1 (some centres not stated) [IMPDH II inhibitor, 21]
IC50: 14 µM

SMILES: CCC(CC#N)OC(=O)N[C@@H](C)c1cccc(N/C(=C/[N+](=O)[O-])Nc2ccc(OC)c(OC)c2)c1 (some centres not stated) [IMPDH II inhibitor, 35]
IC50: < 30 µM

SMILES: CCC(CC#N)OC(=O)N[C@@H](C)c1cccc(N2C(=O)CN(c3ccc(C#N)c(OC)c3)C2=O)c1 (some centres not stated) [IMPDH II inhibitor, 42]
IC50: 25 µM

SMILES: CCC(CC#N)OC(=O)N[C@@H](C)c1cccc(NC(=O)Nc2ccc3ncnc(OC)c3c2)c1 (some centres not stated) [IMPDH II inhibitor, 25]
IC50: < 30 µM

SMILES: COc1cc(N/C(=N/C#N)Nc2cccc(OCC(=O)C(C)=O)c2)ccc1C#N [IMPDH II inhibitor, 45]
IC50: < 30 µM

SMILES: CCC(CC#N)OC(=O)N[C@@H](C)c1cccc(NC(=O)Nc2ccc3c(=O)cc(C)oc3c2)c1 (some centres not stated) [IMPDH II inhibitor, 26]
IC50: < 30 µM

SMILES: COc1cc(N/C(=N/C#N)Nc2cccc(OCC(=O)O)c2)ccc1C#N [IMPDH II inhibitor, 46]
IC50: < 30 µM

SMILES: CCC(CC#N)OC(=O)N[C@@H](C)c1cccc(Nc2nc3ccc(-c4ccc(C#N)c(OC)c4)cc3[nH]2)c1 (some centres not stated) [IMPDH II inhibitor, 44]
IC50: < 30 µM

SMILES: CCC(CC#N)OC(=O)N[C@@H](C)c1cccc(NC(=O)Nc2ccc(C3CCOCC3)c(OC)c2)c1 (some centres not stated) [IMPDH II inhibitor, 17]
IC50: < 30 µM

SMILES: CCC(CC#N)OC(=O)N[C@@H](C)c1cccc(NC(=O)COc2ccc(OC)c(OC)c2)c1 (some centres not stated) [IMPDH II inhibitor, 39]
IC50: < 30 µM

SMILES: CCC(CC#N)OC(=O)N[C@@H](C)c1cccc(NC(=O)COc2ccc(C#N)c(OC)c2)c1 (some centres not stated) [IMPDH II inhibitor, 38]
IC50: < 30 µM

SMILES: CCC(CC#N)OC(=O)N[C@@H](C)c1cccc(NC(=O)Nc2ccc3c(=O)ccoc3c2)c1 (some centres not stated) [IMPDH II inhibitor, 27]
IC50: < 10 µM

SMILES: CCC(CC#N)OC(=O)N[C@@H](C)c1cccc(NC(=N)Nc2ccc(OC)c(OC)c2)c1 (some centres not stated) [IMPDH II inhibitor, 31]
IC50: < 30 µM

SMILES: CCC(CC#N)OC(=O)N[C@@H](C)c1cccc(NC(=O)Nc2ccc(C)c(OC)c2)c1 (some centres not stated) [IMPDH II inhibitor, 14]
IC50: 19 µM

SMILES: CCC(CC#N)OC(=O)N[C@@H](C)c1cccc(NC(=O)Nc2ccc3cc(OC)c(OC)cc3c2)c1 (some centres not stated) [IMPDH II inhibitor, 23]
IC50: < 30 µM

SMILES: CCC(CC#N)OC(=O)N[C@@H](C)c1cccc(NC(=N)Nc2ccc(C#N)c(OC)c2)c1 (some centres not stated) [IMPDH II inhibitor, 30]
IC50: < 30 µM and 30 µM

SMILES: CCC(CC#N)OC(=O)N[C@@H](C)c1cccc(NC(=O)Nc2ccc(N3CCOCC3)c(OC)c2)c1 (some centres not stated) [IMPDH II inhibitor, 15]
IC50: < 30 µM

SMILES: CCC(CC#N)OC(=O)N[C@@H](C)c1cccc(NC(=O)Nc2ccc3ncc(OC)nc3c2)c1 (some centres not stated) [IMPDH II inhibitor, 22]
IC50: < 30 µM

SMILES: CCC(CC#N)OC(=O)N[C@@H](C)c1cccc(NC(=O)Nc2ccc3c(c2)C(C)CO3)c1 (some centres not stated) [IMPDH II inhibitor, 24]
IC50: < 30 µM

SMILES: CCC(CC#N)OC(=O)N[C@@H](C)c1cccc(N/C(=N/C#N)Nc2ccc(OC)c(OC)c2)c1 (some centres not stated) [IMPDH II inhibitor, 33]
IC50: 5.6 µM

SMILES: CCC(CC#N)OC(=O)N[C@@H](C)c1cccc(NC(=O)c2cncc(-c3ccc(C#N)c(OC)c3)n2)c1 (some centres not stated) [IMPDH II inhibitor, 43]
IC50: < 30 µM

SMILES: CCC(CC#N)OC(=O)N[C@@H](C)c1cccc(NC(=O)NS(=O)(=O)c2ccc(OC)c(OC)c2)c1 (some centres not stated) [IMPDH II inhibitor, 40]
IC50: < 30 µM

SMILES: CCC(CC#N)OC(=O)N[C@@H](C)c1cccc(N/C(=N/C#N)Nc2ccc(C#N)c(OC)c2)c1 (some centres not stated) [IMPDH II inhibitor, 32]
IC50: 3 µM

SMILES: CCC(CC#N)OC(=O)N[C@@H](C)c1cccc(NC(=O)Nc2ccc(C3=CCOCC3)c(OC)c2)c1 (some centres not stated) [IMPDH II inhibitor, 16]
IC50: 3.5 µM

SMILES: CCC(CC#N)OC(=O)N[C@@H](C)c1cccc(NC(=O)Nc2ccc3c(c2)OCC3)c1 (some centres not stated) [IMPDH II inhibitor, 18]
IC50: 10 µM

SMILES: CCC(CC#N)OC(=O)N[C@@H](C)c1cccc(NC(=O)Nc2ccc(OC)c(OC)c2)c1 (some centres not stated) [IMPDH II inhibitor, 13]
IC50: 0.23 µM

SMILES: CCC(CC#N)OC(=O)N[C@@H](C)c1cccc(NC(=O)CNc2ccc(C#N)c(OC)c2)c1 (some centres not stated) [IMPDH II inhibitor, 37]
IC50: < 30 µM

SMILES: CCC(CC#N)OC(=O)N[C@@H](C)c1cccc(NCC(=O)Nc2ccc(OC)c(OC)c2)c1 (some centres not stated) [IMPDH II inhibitor, 36]
IC50: < 30 µM

More lines, now with the values ahead:

IC50: < 30 µM
SMILES: COc1cc(N/C(=N/C#N)Nc2cccc(-c3cccc(C(=O)O)c3)c2)ccc1C#N [IMPDH II inhibitor, 58]

IC50: < 30 µM
SMILES: COc1cc(N/C(=N/C#N)Nc2cccc(CC(=O)O)c2)ccc1C#N [IMPDH II inhibitor, 52]

IC50: < 30 µM
SMILES: COc1cc(N/C(=N/C#N)Nc2cccc(-c3nnn(C)n3)c2)ccc1C#N [IMPDH II inhibitor, 47]

IC50: < 30 µM
SMILES: COc1cc(N/C(=N/C#N)Nc2cccc(C(=O)O)c2)ccc1C#N [IMPDH II inhibitor, 53]

IC50: < 30 µM
SMILES: COc1cc(N/C(=N/C#N)Nc2cccc(-c3ccccc3F)c2)ccc1C#N [IMPDH II inhibitor, 54]

IC50: 0.0035 µM
SMILES: COc1cc(NC(=O)Nc2cccc(CNC(=O)OC3CCOC3)c2)ccc1-c1cnco1 (configuration not stated) [VX-497 (2)]

IC50: < 30 µM
SMILES: COc1cc(N/C(=N/C#N)Nc2cccc(CCC(=O)O)c2)ccc1C#N [IMPDH II inhibitor, 50]

IC50: < 30 µM
SMILES: COc1cc(N/C(=N/C#N)Nc2cccc(-c3cccc(C(F)(F)F)c3)c2)ccc1C#N [IMPDH II inhibitor, 57]

IC50: < 30 µM
SMILES: COc1cc(N/C(=N/C#N)Nc2cccc(-c3ccc(F)cc3)c2)ccc1C#N [IMPDH II inhibitor, 56]

IC50: < 30 µM
SMILES: COc1cc(N/C(=N/C#N)Nc2cccc(-c3cccc(F)c3)c2)ccc1C#N [IMPDH II inhibitor, 55]

IC50: < 30 µM
SMILES: COc1cc(N/C(=N/C#N)Nc2cccc(/C=C/C(=O)O)c2)ccc1C#N [IMPDH II inhibitor, 51]

IC50: 0.38 µM
SMILES: CCC(CC#N)OC(=O)N[C@@H](C)c1cccc(NC(=O)Nc2ccc(C#N)c(OC)c2)c1 (some centres not stated) [VX-148 (3)]

IC50: < 30 µM
SMILES: COc1cc(N/C(=N/C#N)Nc2cccc(Cc3nnn(C)n3)c2)ccc1C#N [IMPDH II inhibitor, 49]

IC50: < 30 µM
SMILES: COc1cc(N/C(=N/C#N)Nc2cccc(-c3nnnn3C)c2)ccc1C#N [IMPDH II inhibitor, 48]

IC50: < 30 µM
SMILES: COc1cc(N/C(=N/C#N)Nc2cccc(-c3ccc(C#N)cc3)c2)ccc1C#N [IMPDH II inhibitor, 59]

IC50: < 30 µM
SMILES: COc1cc(N/C(=N/C#N)Nc2cccc(-c3cccc(C#N)c3)c2)ccc1C#N [IMPDH II inhibitor, 60]
